Key:
[1] = test system: Staphylococcus aureus (#25923); test: In vitro disc diffusion assay, ZOI (Example 3); assay type: cell-based; details: 6 mm diameter discs; for ZOI: S. aureus; for Zone of Inhibition: Staphylococcus aureus
Method: (§1) Sterile assay discs (6 mm diameter) were obtained from VWR Whatman and antibiotic assay discs (6 mm diameter) containing getamicin (10 μg/disc) and the combination drug sulfamethoxazole 23.75 μg/disc and trimethoprim 1.25 μg/disc were obtained from Becton, Dickinson and Company (USA). Dimethyl sulfoxide (DMSO) for microbial experiments was BioReagent™ grade and was purchased from Sigma-Aldrich. The nutrient broth and Müller-Hinton agar was purchased from Becton, Dickinson and Company (USA). Bacillus cereus, Pseudomonas aeruginosa (#27853), Klebsiella pneumonia (#13883), Proteus vulgaris (#13315), Staphylococcus aureus (#25923) and Escherichia coli (#25922) strains were obtained from the American Type Culture Collection (ATCC). All materials in contact with antimicrobial matter was treated for 40 min at 121° C. and 20 psi in a biohazard autoclave bag prior to waste disposing or washing. McFarland turbity standards containing barium sulfate were obtained from bioMérieux.
(§2) The growth medium was prepared by addition of Müller-Hinton agar (38 g) to 1 L distilled water under vigorous stirring and boiled for 10 min until complete dissolution. After cooling to 25° C., the pH value of the medium was 7.3±0.1. The medium was sterilized in an autoclave at 121° C. for 15 min at 20 psi, cooled to 45-50° C. and dispended into sterile Petri dishes on a leveled, horizontal surface to give uniform depth. Stock solutions of the microorganisms were incubated at 37° C. for 24 h and the turbidity of the microbial colonies were adjusted visually with sterile saline (0.85% w/v NaCl) to 0.5 McFarland standards. Within 15 min after adjusting the turbidity of the suspensions, the Petri dishes were inoculated using sterile cotton buds. The prepared antibiotic assay discs were placed on the surface of the seeded Müller-Hinton agar using flame sterilized forceps.
(§3) Stock solutions of compounds and the Cu complexed compounds were made in DMSO and were micropipetted onto the discs for 25 to 200 μg compound/disc. The discs were dried at ambient temperature for 30-50 min before placement onto the seeded Petri dishes which were then incubated at 37° C. for 24 h. Averaged inhibition zone measurements (mm) have an accuracy of ±0.5 mm; adjacent overlapping ZOI were determined using radii measurements.

[2] = test system: Bacillus cereus; test: In vitro disc diffusion assay, ZOI (Example 3); assay type: cell-based; details: 6 mm diameter discs; for ZOI: B. cereus; for Zone of Inhibition: Bacillus cereus
Method: as §1, §2, §3

[3] = DPPH antioxidant activity test; details: 50 μg compound in 3 mL methanol; DPPH 150 μL 1 mM; 30 min, 25 °C; absorbance 517 nm
Method: In addition to antibacterial properties, antioxidant activity was assessed in the compounds of Formula I and II and metal complexes thereof as antioxidant compounds play an important role in remediating the toxic effects of reactive oxygen species and other free radicals. The main characteristic of an antioxidant compound is its ability to trap free radicals. Highly reactive free radicals and oxygen species are present in biological systems from a wide variety of sources. Free radical damage is known to occur during bacterial and other microbial infections. Free radicals are produced by cells of the immune system during an active infection, and generally as a result of the inflammatory processes.
DPPH (2,2-diphenyl-1-picryl-hydrazyl, 150 μL, 1 mM solution in methanol) was added to 3 mL methanol in a cuvette (0.5 in diameter) and UV-vis absorption recorded at 517 nm for baseline reading. In a cuvette, DPPH (150 μL, 1 mM solution in methanol) was added to a solution containing compound in 3 mL methanol. The reaction was allowed to stir at 25±1° C. for 30 min under exclusion of light. Absorbance was recorded at 517 nm against reference cuvette filled with methanol.

Row | Compound | Zone of Inhibition ([1]; 6.25 μg Cu/disc) | Zone of Inhibition ([1]; 12.5 μg Cu/disc) | Zone of Inhibition ([1]; 25 μg Cu/disc) | Zone of Inhibition ([2]; 6.25 μg Cu/disc) | Zone of Inhibition ([2]; 12.5 μg Cu/disc) | Zone of Inhibition ([2]; 25 μg Cu/disc) | other results
1 | C(=N\c1ccccc1SCc1ccccc1)/c1ccccn1 [Compound L3] | – | – | – | – | – | – | ZOI ([1]; 50 μg/disc): 0 mm; ZOI ([1]; 75 μg/disc): 2.5 mm; ZOI ([2]; 50 μg/disc): 0 mm; ZOI ([2]; 75 μg/disc): 0.5 mm
2 | 2-(methylthio)-N-(2-pyridylmethylene)-benzenamine copper (II) bromide [ECPP-145] | 0 mm | 1 mm | 4 mm | 0 mm | 0 mm | 0.5 mm | –
3 | 2-(methylthio)-N-(2-phenylmethylene)-benzenamine copper (II) bromide [ECPP-167] | 4 mm | 5 mm | 9 mm | 0 mm | 1 mm | 2 mm | –
4 | CC(=O)[O-].CC(=O)[O-].Nc1ccccc1SCc1ccccc1CSc1ccccc1N.[Cu+2] [α,α′-bis((o-aminophenyl)thio)-ortho-xylene-copper (II) acetate] | – | – | – | – | – | – | % Antiox-Act [3]: 63.5%
5 | Nc1ccccc1SCc1ccc(CSc2ccccc2N)cc1 [Compound L1] | – | – | – | – | – | – | ZOI ([1]; 50 μg/disc): 2.5 mm; ZOI ([1]; 100 μg/disc): 3.5 mm; ZOI ([1]; 200 μg/disc): 5.5 mm; ZOI ([2]; 50 μg/disc): 1.5 mm; ZOI ([2]; 100 μg/disc): 5 mm; ZOI ([2]; 200 μg/disc): 6.3 mm
6 | 2-(methylthio)-N-(2-pyridylmethylene)-benzenamine copper (I) bromide [ECPP-141] | 0.5 mm | 2 mm | 5 mm | 0 mm | 0 mm | 2 mm | –
7 | Nc1ccccc1SCc1ccccc1CSc1ccccc1N.[Cl][Cu][Cl] [α,α′-bis((o-aminophenyl)thio)-ortho-xylene-copper (II) chloride] | – | – | – | – | – | – | % Antiox-Act [3]: 56.1%
8 | 2-(methylthio)-N-(2-pyridylmethylene)-benzenamine copper (I) iodide [ECPP-143] | 0 mm | 0 mm | 1 mm | – | – | – | –
9 | C(=N\c1ccccc1SCc1ccccc1CSc1ccccc1/N=C/c1ccccn1)/c1ccccn1 [Compound L4] | – | – | – | – | – | – | ZOI ([1]; 200 μg/disc): 0.5 mm; ZOI ([2]; 200 μg/disc): 0.5 mm
10 | 2-(methylthio)-N-(2-thienylmethylene)-benzenamine copper (II) bromide [ECPP-129] | 5 mm | 7 mm | 10 mm | 0 mm | 0.5 mm | 9 mm | –
11 | Nc1ccccc1SCc1ccccc1CSc1ccccc1N [Compound L2] | – | – | – | – | – | – | ZOI ([1]; 200 μg/disc): 1.5 mm; ZOI ([2]; 200 μg/disc): 2 mm

Reference: patent publication US20140348880A1, “Ortho-Aminothiophenol Compounds and Uses Thereof” (Cape Breton University, priority 2013, published 2014)
